Structures can show the parent of a compound that is named as a salt.

The values below come from patent US20210393645A1, “TREATMENT FOR PROGRESSIVE MULTIPLE SCLEROSIS” (UTI LIMITED PARTNERSHIP, priority 2016, published 2021).

The first assay deals with human neurons. In words: Iron (FeSO4) mediated neurotoxicity screening, MAP-2 positive neurons counted. The assay is classed as cell-based. As to conditions: Homo sapiens, Neuron, 24 h, read-out: Drug % control (mean): number of neurons normalized to untreated control. How it is done:
Human neurons were isolated from brain tissues of therapeutically aborted 15-20 week old fetuses, in accordance with ethics approval of the University of Calgary ethics committee, after written informed consent of the pregnant donors. Neurons were isolated as previously described (Vecil et al., 2000) brain specimens were washed in phosphate buffered saline (PBS) to remove blood, followed by removal of meninges. […] Thereafter, the digestion was stopped by addition of 4 ml fetal calf serum (FCS). […] Cells were cultured in feeding medium of minimal essential medium (MEM) supplemented with 10% fetal bovine serum (FBS), 1 μM sodium pyruvate, 10 μM glutamine, 1× non-essential amino acids, 0.1% dextrose and 1% penicillin/streptomycin (all culture supplements from Invitrogen, Burlington, Canada). […] For experiments, the neuron-enriched cultures were retrypsinized and cells were plated in poly-L-ornithine pre-coated 96-well plates at a density of 100,000 cells/well in 100 μl of the complete medium supplemented with cytosine arabinoside. […] All conditions were performed in quadruplicates. A day later cells were fixed using 4% paraformaldehyde (PFA) and stored in PBS in 4° C.
Briefly, there were 80 compounds located in specific wells on each plate (e. g. B07). […] Each compound was supplied at a concentration of 10 mM dissolved in DMSO.
After filtering with a 0.2 μm filter, FeSO4 was added to cells in a final concentration of 25-50 μM in a volume of 50 μl medium to the cells. Rotenone was dissolved in dimethyl sulfoxide (DMSO) and used in a final concentration of 10 μM.
Staining was performed at room temperature. A blocking buffer was first introduced for 1 h followed by incubation with primary antibody overnight in 4° C.
Cell nuclei were stained with Hoechst S769121 (nuclear yellow). Cells were stored in 4° C. in the dark before imaging.
Images were taken using the automated ImageXpress® imaging system (Molecular Devices, Sunnyvale, Calif.) through a 10x objective microscope lens, displaying 4 or 9 sites per well. […] Cells were defined according to fluorescence intensity and size at different wavelengths. Data from all sites per well were averaged to one data point.
Neurons were pre-incubated with each compound for 1 h followed by application of FeSO4.
Consider `CC[C@H](C)C(=O)O[C@H]1C[C@@H](C)C=C2C=C[C@H](C)[C@H](CC[C@@H]3C[C@@H](O)CC(=O)O3)[C@H]21` [LOVASTATIN], for which the viability at 10 µM is 32.2%.

With `CC(C)C[C@H](CN)CC(=O)O` [PREGABALIN], the viability at 10 µM is 47.8%.

As to `COc1cc(NC(C)CCCN)c2ncccc2c1` (centres unmarked) [PRIMAQUINE DIPHOSPHATE], the viability at 10 µM came out at 89.1%.

Turning to `CO[C@H]1/C=C/O[C@@]2(C)Oc3c(C)c(O)c4c(O)c(c(/C=N/N5CCN(C)CC5)c(O)c4c3C2=O)NC(=O)/C(C)=C\C=C\[C@H](C)[C@H](O)[C@@H](C)[C@@H](O)[C@@H](C)[C@H](OC(C)=O)[C@@H]1C` [RIFAMPIN], the viability at 10 µM is 95.5%.

Staying with this assay, now noted: Homo sapiens, Neuron; drug 10 μM 1 h before FeSO4 25 or 50 μM; MAP-2 neurons after 24 h; read-out: Drug % control (mean): number of neurons normalized to untreated control.
Take `CN1CCN(C2=Nc3ccccc3Oc3ccc(Cl)cc32)CC1` [LOXAPINE SUCCINATE]: the viability at 10 µM is 65.9%.

As for `CNCCCC12CCC(c3ccccc31)c1ccccc12` [MAPROTILINE HYDROCHLORIDE], the viability at 10 µM came out at 0.61%.

Regarding `COC(=O)Nc1nc2ccc(C(=O)c3ccccc3)cc2[nH]1` [MEBENDAZOLE], the viability at 10 µM came out at 2.48%.

In the case of `Cc1cccc(Nc2ccccc2C(=O)O)c1C` [MEFENAMIC ACID], the viability at 10 µM worked out at 57.2%.

On to `Cc1cnc(NC(=O)C2=C(O)c3ccccc3S(=O)(=O)N2C)s1` [MELOXICAM], for which the viability at 10 µM turned out to be 59.5%.

For the molecule `S=c1nc[nH]c2nc[nH]c12` [MERCAPTOPURINE], the viability at 10 µM stood at 1.73%.

For the molecule `CC(=O)/N=c1/sc(S(N)(=O)=O)nn1C` [METHAZOLAMIDE], the viability at 10 µM stood at 54.3%.

As to `C1N2CN3CN1CN(C2)C3` [METHENAMINE], the viability at 10 µM came out at 1.94%.

For `COc1ccccc1OCC(O)COC(N)=O` (centres unmarked) [METHOCARBAMOL], the viability at 10 µM was 0.84%.

With `CN(Cc1cnc2nc(N)nc(N)c2n1)c1ccc(C(=O)N[C@@H](CCC(=O)O)C(=O)O)cc1` [METHOTREXATE], the viability at 10 µM came out at 43.3%.

As to `COc1c2occc2cc2ccc(=O)oc12` [METHOXSALEN], the viability at 10 µM turned out to be 59%.

For the molecule `CCN(CC)CCNC(=O)c1cc(Cl)c(N)cc1OC` [METOCLOPRAMIDE HYDROCHLORIDE], the viability at 10 µM came to 37.9%.

Take `Cc1ccccc1N1C(=O)c2cc(S(N)(=O)=O)c(Cl)cc2NC1C` (centres unmarked) [METOLAZONE]: the viability at 10 µM is 69%.

As to `COCCc1ccc(OCC(O)CNC(C)C)cc1` (centres unmarked) [METOPROLOL TARTRATE], the viability at 10 µM is 71.5%.

For `Cc1ncc([N+](=O)[O-])n1CCO` [METRONIDAZOLE], the viability at 10 µM was determined as 27.1%.

Consider `Nc1cc(N2CCCCC2)nc(N)[n+]1[O-]` [MINOXIDIL], for which the viability at 10 µM was determined as 33.7%.

`NC(=O)C[S+]([O-])C(c1ccccc1)c1ccccc1` (centres unmarked) [MODAFINIL]: the viability at 10 µM came to 43.9%.

With `COc1c(C)c2c(c(O)c1C/C=C(\C)CCC(=O)O)C(=O)OC2` [MYCOPHENOLIC ACID], the viability at 10 µM worked out at 45.7%.

With `COc1ccc2cc(CCC(C)=O)ccc2c1` [NABUMETONE], the viability at 10 µM worked out at 48.9%.

As to `C=CCN1CC[C@]23c4c5ccc(O)c4O[C@H]2C(=O)CC[C@@]3(O)[C@H]1C5` [NALOXONE HYDROCHLORIDE], the viability at 10 µM stood at 69.5%.

On to `O=C1CC[C@@]2(O)[C@H]3Cc4ccc(O)c5c4[C@@]2(CCN3CC2CC2)[C@H]1O5` [NALTREXONE HYDROCHLORIDE], for which the viability at 10 µM was 39.5%.

`CN(C)C(=O)Oc1cccc([N+](C)(C)C)c1` [NEOSTIGMINE BROMIDE]: the viability at 10 µM was found to be 44.8%.

On to `CC1(C)NC(=O)N(c2ccc([N+](=O)[O-])c(C(F)(F)F)c2)C1=O` [NILUTAMIDE], for which the viability at 10 µM worked out at 48.7%.

As for `COCCOC(=O)C1=C(C)NC(C)=C(C(=O)OC(C)C)C1c1cccc([N+](=O)[O-])c1` (centres unmarked) [NIMODIPINE], the viability at 10 µM amounted to 62.8%.

As for `O=C1CN(/N=C/c2ccc([N+](=O)[O-])o2)C(=O)N1` [NITROFURANTOIN], the viability at 10 µM was 17.8%.

Take `CCn1cc(C(=O)O)c(=O)c2cc(F)c(N3CCNCC3)cc21` [NORFLOXACIN]: the viability at 10 µM stood at 13.6%.

Consider `CC(CCc1ccccc1)NC(C)C(O)c1ccc(O)cc1` (centres unmarked) [NYLIDRIN HYDROCHLORIDE], for which the viability at 10 µM was 50.1%.

For `CCCCCCCCCCC[C@@H](C[C@@H]1OC(=O)[C@H]1CCCCCC)OC(=O)[C@H](CC(C)C)NC=O` [ORLISTAT], the viability at 10 µM was determined as 1%.

In the case of `Cc1ccccc1C(OCCN(C)C)c1ccccc1` (centres unmarked) [ORPHENADRINE CITRATE], the viability at 10 µM came to 54.5%.

Take `NC(=O)N1c2ccccc2CC(=O)c2ccccc21` [OXCARBAZEPINE]: the viability at 10 µM was determined as 38.2%.

Take `NC[C@@H]1O[C@H](O[C@H]2[C@@H](O)[C@H](O[C@@H]3[C@@H](O)[C@H](N)C[C@H](N)[C@H]3O[C@H]3O[C@H](CO)[C@@H](O)[C@H](O)[C@H]3N)O[C@@H]2CO)[C@H](N)[C@@H](O)[C@@H]1O` [PAROMOMYCIN SULFATE]: the viability at 10 µM was 35.3%.

As for `CC(=O)CCCCn1c(=O)c2c(ncn2C)n(C)c1=O` [PENTOXIFYLLINE], the viability at 10 µM is 66.5%.

For `CCC[C@H](N[C@@H](C)C(=O)N1[C@H](C(=O)O)C[C@@H]2CCCC[C@@H]21)C(=O)OCC` [PERINDOPRIL ERBUMINE], the viability at 10 µM was found to be 49.4%.

As for `OCCN1CCN(CCCN2c3ccccc3Sc3ccc(Cl)cc32)CC1` [PERPHENAZINE], the viability at 10 µM was determined as 78.8%.

On to `Nc1ccc(/N=N/c2ccccc2)c(N)n1` [PHENAZOPYRIDINE HYDROCHLORIDE], for which the viability at 10 µM turned out to be 101%.

For `NNCCc1ccccc1` [PHENELZINE SULFATE], the viability at 10 µM was determined as 46.7%.

Turning to `O=C1NC(=O)C(c2ccccc2)(c2ccccc2)N1` [PHENYTOIN SODIUM], the viability at 10 µM was determined as 30.1%.

As for `CC(C)NCC(O)COc1cccc2[nH]ccc12` (centres unmarked) [PINDOLOL], the viability at 10 µM came out at 62.6%.

For the molecule `CCc1ccc(CCOc2ccc(CC3SC(=O)NC3=O)cc2)nc1` (centres unmarked) [PIOGLITAZONE HYDROCHLORIDE], the viability at 10 µM turned out to be 84.6%.

For the molecule `CN1C(C(=O)Nc2ccccn2)=C(O)c2ccccc2S1(=O)=O` [PIROXICAM], the viability at 10 µM was found to be 36.2%.

Turning to `Nc1ccc(C(=O)O)cc1` [POTASSIUM p-AMINOBENZOATE], the viability at 10 µM came to 44.5%.

Regarding `CC[C@H](C)C(=O)O[C@H]1C[C@H](O)C=C2C=C[C@H](C)[C@H](CC[C@@H](O)C[C@@H](O)CC(=O)O)[C@H]21` [PRAVASTATIN SODIUM], the viability at 10 µM came to 40.5%.

`CCC1(c2ccccc2)C(=O)NCNC1=O` [PRIMIDONE]: the viability at 10 µM turned out to be 45.2%.

In the case of `CCCN(CCC)S(=O)(=O)c1ccc(C(=O)O)cc1` [PROBENECID], the viability at 10 µM was determined as 71.5%.

For `CCN(CC)CCNC(=O)c1ccc(N)cc1` [PROCAINAMIDE HYDROCHLORIDE], the viability at 10 µM stood at 64.3%.

For `CN1CCN(CCCN2c3ccccc3Sc3ccc(Cl)cc32)CC1` [PROCHLORPERAZINE EDISYLATE], the viability at 10 µM is 4.88%.

For `OC(CCN1CCCC1)(c1ccccc1)C1CCCCC1` (centres unmarked) [PROCYCLIDINE HYDROCHLORIDE], the viability at 10 µM came to 95.6%.

Turning to `CCCNCC(O)COc1ccccc1C(=O)CCc1ccccc1` (centres unmarked) [PROPAFENONE HYDROCHLORIDE], the viability at 10 µM was determined as 51.3%.

In the case of `CCCc1cc(=O)[nH]c(=S)[nH]1` [PROPYLTHIOURACIL], the viability at 10 µM stood at 35.9%.

As for `CN[C@@H](C)[C@@H](O)c1ccccc1` [PSEUDOEPHEDRINE HYDROCHLORIDE], the viability at 10 µM turned out to be 26.7%.

Turning to `NC(=O)c1cnccn1` [PYRAZINAMIDE], the viability at 10 µM is 67.2%.

Consider `CN(C)C(=O)Oc1ccc[n+](C)c1` [PYRIDOSTIGMINE BROMIDE], for which the viability at 10 µM turned out to be 35.8%.

With `CCOC(=O)[C@H](CCc1ccccc1)N[C@@H](C)C(=O)N1Cc2ccccc2C[C@H]1C(=O)O` [QUINAPRIL HYDROCHLORIDE], the viability at 10 µM stood at 41.5%.

As to `C=C[C@H]1C[N@@]2CC[C@H]1C[C@H]2[C@H](O)c1ccnc2ccc(OC)cc12` [QUININE SULFATE], the viability at 10 µM was 21.3%.

Regarding `CNC(=C[N+](=O)[O-])NCCSCc1ccc(CN(C)C)o1` [RANITIDINE], the viability at 10 µM was determined as 40.2%.

In the case of `CO[C@H]1/C=C/O[C@@]2(C)Oc3c(C)c(O)c4c(O)c(c5c(nc6cc(C)ccn65)c4c3C2=O)NC(=O)/C(C)=C\C=C\[C@H](C)[C@H](O)[C@@H](C)[C@@H](O)[C@@H](C)[C@H](OC(C)=O)[C@@H]1C` [RIFAXIMIN], the viability at 10 µM was found to be 53.8%.

The same assay, now with this note: drug 10 μM 1 h before FeSO4 25 or 50 μM; MAP-2 neurons after 24 h.
`COc1ccc2cc([C@H](C)C(=O)O)ccc2c1` [NAPROXEN(+)]: the “Drug % control (mean): number of neurons normalized to untreated control” value stood at 25.64%.

Turning to `CCCc1nc(C(C)(C)O)c(C(=O)OCc2oc(=O)oc2C)n1Cc1ccc(-c2ccccc2-c2nnn[nH]2)cc1` [OLIVEESARTAN MEDOXOMIL], the “Drug % control (mean): number of neurons normalized to untreated control” value was 55.85%.
